These results are taken from patent US20070191493A1, “Use of n-alkanols as activators of the cftr channel” (priority 2003, published 2007).

Where two headings read alike, the source gives them in different places.

One test relates to CHO cells. The test can be described thus: ATP-induced calcium response (cellular uncoupling) in CHO cells. The test is classed as cell-based, Chinese hamster. Conditions: α-GA 10 to 100 μM, octan-1-ol 1 mM. How it is done: The Ca^2+ measurements are carried out in the presence of fura-2 (impermeant fluorescent probe) which binds […]. The cells are incubated in serum-free DMEM/F12 culture medium in the presence of the permeant form of fura-2 (fura-2/AM, 2.5 μM) for 1 h at 37° C. The cells, placed on the platform of an epifluorescent microscope (Olympus) (20× objective), are perfused with the solutions to be tested (e.g. ATP, octanol). They are sequentially illuminated at 340 nm and 380 nm and the fluorescence emitted (F) is measured at 510 nm. It is detected via a 12-bit CCD camera (Sony) connected to a data processing computer unit (TILL Photonics). The intracellular Ca^2+ concentration [Ca^2+]i is calculated using the Grynckiewicz equation (Grynckiewicz et al., 1985): [Ca^2+]i=Kdi *(R−Rmin/Rmax−R), based on the ratiometric analysis R (340/380 nm) of the fluorescence (TILL Vision); Rmax and Rmin denote the ratio of fluorescence measured in the presence or in the absence of Ca^2+.

Test [1] addresses T1, CFTR channel (Homo sapiens, UniProt P13569). Put plainly: whole-cell patch-clamp in CHO-BQ1 cells, reversibility after washing. The test is classed as cell-based. Also on record: expressed in transfected cells; host or cells: CHO-BQ1 cells. Conditions: octan-1-ol 1 mM, washing 15 min with physiological saline. Here is the method: (§1) More specifically, culture dishes (cell support) are placed in an experimentation cell (volume 1 ml) on the platform of an inverted microscope (Nikon) equipped with phase-contrast lighting. The whole-cell configuration is used for recording the cell currents (Hamill et al., 1981). The experiments are carried out at ambient temperature (20-22° C.). The currents are amplified with an Axopatch 200B amplifier (Axon Instrument Ltd) having a 2-5 kHz low-pass filter (Bessel 6-pole filter), and recorded on the hard disk of a PC after digitization at 10-25 kHz. The pipettes are produced from glass tubes 1 mm in diameter (Clark Electromedical Instrument) in four steps with a horizontal drawing device (Bruwn Flaming 97, CA).
(§2) The pipettes, filled with an intracellular solution containing, in mM: 60 KCl; 80 NMDG ([…]); 10 HEPES; 5 EGTA; 1 CaCl2; 4 MgATP; 0.2 Na3GTP; pH 7.4, titrated with KOH), having a resistance of 5 MΩ. The potentials are expressed as the difference between the potential of the patch electrode and that of the bath. In the whole-cell configuration, they represent the membrane potential of the cell. […] The current-voltage relationships in the stationary state are determined using slow voltage ramps (20 mV/.s) under an imposed voltage condition. […]
For orientation: In patch-clamp work, channel activity is measured electrically.

Test [2] deals with T1, CFTR channel. Put plainly: 125I radioactive iodide efflux in CHO-CFTR(+) cells. It counts as cell-based. Set-up: expressed in transfected cells; host or cells: CHO (Chinese hamster ovary) cells, CHO-CFTR(+). Here is the method: The cells are cultured in 24-well plates with a dilution to 1/10 after passage. […] The operation is repeated every 30 s for 2 to 6 min. […] All the samples are counted in a gamma counter (Kontron). The precipitated proteins are solubilized in 0.1N NaOH and quantified using a calorimetric test.
The tracer contained in the cell layer at the beginning of the efflux is calculated as the sum of the samples and of the extracts counted. The efflux curves are constructed by expressing the percentage of the content remaining in the cell layer (I %) with respect to time. The stimulated or nonstimulated efflux rate constants (k, min^−1) are determined by smoothing the efflux curves to a monoexponential function I %=100*exp(−kt) using a linear regression of the neperian logarithm of the data, k is used to calculate the iodide released into the medium with respect to time. The hypothesis is made that, in the presence of a stimulator, the efflux is the sum of two iodide effluxes occurring in parallel: a basal efflux and a stimulated efflux characterized, respectively, by the constants kb and ks. The total net efflux is then described by the equation It^%=100*(1−exp(−ktt)) where kt is the sum of kb and ks. Finally, ks calculated as kt−kb is used to establish a dose-response relationship for antagonists. The data is expressed as means ±SD, and the t-test is used to determine the significances. The concentration-response curves for agonists or for antagonists are smooth using the hyperbolic equation Y=Ymax*X/(EC5C+X), where Y is the response. Y begins at the basal level and progresses to the plateau (Ymax), X is the concentration and the half-effect values (EC are calculated using GraphPad Prism v3.0 (GraphPad software)).

In test [3] the target is T1, CFTR channel. The test can be described thus: whole-cell patch-clamp in CHO-CFTR(+) cells. The test is classed as cell-based. Also on record: expressed in transfected cells; host or cells: CHO (Chinese hamster ovary) cells, CHO-CFTR(+).
Excerpt: The patch-clamp technique consists in applying a glass pipette or a glass microelectrode to the surface of the cell. By applying slight touch, it is possible to cause the membrane to adhere to the glass. A small piece of membrane (patch) is thus isolated at the end of the pipette. This is the principle of patch-clamp (O. P. Hamill et al., Pflügers Arch., 1981, 391, 85-100; R. Penner, A Practical Guide to Patch Clamping, 1995, In Single Channel Recording, 2nd edition (Eds. B. Sakmann et al.) Plenum Press, New York, 3-30). To do this, the patch-clamp pipette must have a tip of the order of 1 μm in diameter and a resistance of the order of 1-5 MΩ. The resistance of a pipette or of a microelectrode makes it possible to assess the fineness of the tip: the greater the resistance, the finer the tip or the more the electrode is blocked. […] Interactions between the membrane and the glass will form, aided by a slight suction or negative pressure in the pipette. The quality of this interaction (or sealing) is also assessed by measuring the resistance between the glass and the membrane. To measure overall currents in the whole cell configuration, a sealing resistance of 1 GΩ is sufficient.
as §1
as §2, with “cell. The junction potentials that form between the recording electrode and the extracellular medium are eliminated before the contact of the electrode with the cell.” for “cell.”

T1 sequence (P13569 whole entry): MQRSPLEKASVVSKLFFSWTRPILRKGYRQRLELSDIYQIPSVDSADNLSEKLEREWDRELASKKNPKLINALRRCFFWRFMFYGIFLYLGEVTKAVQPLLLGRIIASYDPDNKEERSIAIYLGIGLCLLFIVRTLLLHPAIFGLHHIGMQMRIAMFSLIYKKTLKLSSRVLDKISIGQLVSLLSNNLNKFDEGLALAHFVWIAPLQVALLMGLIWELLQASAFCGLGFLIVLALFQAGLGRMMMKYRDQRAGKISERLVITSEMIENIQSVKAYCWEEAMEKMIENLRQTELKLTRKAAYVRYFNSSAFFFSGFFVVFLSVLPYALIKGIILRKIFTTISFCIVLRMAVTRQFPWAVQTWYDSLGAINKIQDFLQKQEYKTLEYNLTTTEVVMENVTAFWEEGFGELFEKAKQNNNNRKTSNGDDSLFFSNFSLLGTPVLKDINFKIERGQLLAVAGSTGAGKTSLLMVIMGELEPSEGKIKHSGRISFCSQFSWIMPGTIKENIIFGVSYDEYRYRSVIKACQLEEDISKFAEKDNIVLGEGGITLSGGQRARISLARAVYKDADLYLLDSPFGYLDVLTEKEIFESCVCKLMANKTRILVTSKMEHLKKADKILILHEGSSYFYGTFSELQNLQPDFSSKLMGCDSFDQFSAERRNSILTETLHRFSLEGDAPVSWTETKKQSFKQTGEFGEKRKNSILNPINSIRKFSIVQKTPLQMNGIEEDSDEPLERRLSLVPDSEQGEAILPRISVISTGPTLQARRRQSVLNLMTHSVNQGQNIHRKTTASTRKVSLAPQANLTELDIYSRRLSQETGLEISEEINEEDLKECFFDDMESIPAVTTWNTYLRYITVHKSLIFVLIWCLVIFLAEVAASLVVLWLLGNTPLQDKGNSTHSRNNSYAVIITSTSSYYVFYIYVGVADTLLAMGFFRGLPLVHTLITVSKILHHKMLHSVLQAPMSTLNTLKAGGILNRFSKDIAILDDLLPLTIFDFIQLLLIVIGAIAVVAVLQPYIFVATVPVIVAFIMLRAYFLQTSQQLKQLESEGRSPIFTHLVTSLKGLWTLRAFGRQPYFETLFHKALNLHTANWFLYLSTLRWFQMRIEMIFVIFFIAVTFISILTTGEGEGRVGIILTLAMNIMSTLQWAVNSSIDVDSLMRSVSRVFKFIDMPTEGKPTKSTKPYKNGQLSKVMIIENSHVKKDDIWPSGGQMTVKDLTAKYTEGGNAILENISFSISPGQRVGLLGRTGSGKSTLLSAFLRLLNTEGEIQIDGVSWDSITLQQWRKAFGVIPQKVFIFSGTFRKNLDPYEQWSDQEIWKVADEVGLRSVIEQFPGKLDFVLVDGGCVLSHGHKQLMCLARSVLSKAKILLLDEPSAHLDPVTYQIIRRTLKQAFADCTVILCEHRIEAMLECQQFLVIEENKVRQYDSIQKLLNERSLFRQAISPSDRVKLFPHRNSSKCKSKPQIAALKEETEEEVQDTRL

Turning to `CCCCCCCCO` [octan-1-ol], the “cellular uncoupling shown by ATP-induced calcium response” value in the test with CHO cells is reported as “clearly uncouples the cells”. Moreover, the “reversibility of the activating effect on CFTR” value on CFTR channel [1] is reported as “reversible”. The “order of activation of CFTR by n-alkanols” value on CFTR channel [2] (1 mM, 125I efflux or patch-clamp) is “hexan-1-ol<heptan-1-ol<octan-1-ol<octan-2-ol<decan-1-ol”. For the same molecule, at CFTR channel [2] (CHO-CFTR(+) cells), the “concentration at which plateau of CFTR activation is reached” value was determined as 1 mM. Further, the “activation of CFTR (125I efflux), in words” value at CFTR channel [2] (CHO-CFTR(+) cells, n-alkanols 1 mM, FSK 1 μM, A23187 2 μM, α-GA 10 and 100 μM) is reported as “increase in activation of CFTR”. Further, the EC50 on CFTR channel [2] (CHO-CFTR(+) cells, read-out: half-activation dose) is 500 µM; at CFTR channel [2] (EC50 of activation of CFTR (125I efflux rate constant), CHO-CFTR(+) cells, octan-1-ol 0.1 to 5 mM), approximately 500 µM. Besides, the “activation of the CFTR channel by patch-clamp, in words” value on CFTR channel [3] (octan-1-ol alone 1 mM, without FSK) was “full activation”. At CFTR channel [3] (whole-cell, FSK- or octan-1-ol-induced current), the “reversion potential of the induced current” value was determined as 1±0.6 mV. For the same molecule, the “increase in membrane conductance compared with the control” value on CFTR channel [3] (whole-cell, FSK 1 μM, octan-1-ol 1 mM) is “approximately 10 fold”.
